Among the data in US12522594B2, “2-heteroaryl-3-oxo-2,3-dihydropyridazine-4-carboxamides for the treatment of cancer” (Deutsches Krebsforschungszentrum, priority 2017, dated 2026) are IC50 values, retold here.

The target in experiment [1] is T1, AHR (Homo sapiens, UniProt P35869).
T1 sequence (P35869 11-848): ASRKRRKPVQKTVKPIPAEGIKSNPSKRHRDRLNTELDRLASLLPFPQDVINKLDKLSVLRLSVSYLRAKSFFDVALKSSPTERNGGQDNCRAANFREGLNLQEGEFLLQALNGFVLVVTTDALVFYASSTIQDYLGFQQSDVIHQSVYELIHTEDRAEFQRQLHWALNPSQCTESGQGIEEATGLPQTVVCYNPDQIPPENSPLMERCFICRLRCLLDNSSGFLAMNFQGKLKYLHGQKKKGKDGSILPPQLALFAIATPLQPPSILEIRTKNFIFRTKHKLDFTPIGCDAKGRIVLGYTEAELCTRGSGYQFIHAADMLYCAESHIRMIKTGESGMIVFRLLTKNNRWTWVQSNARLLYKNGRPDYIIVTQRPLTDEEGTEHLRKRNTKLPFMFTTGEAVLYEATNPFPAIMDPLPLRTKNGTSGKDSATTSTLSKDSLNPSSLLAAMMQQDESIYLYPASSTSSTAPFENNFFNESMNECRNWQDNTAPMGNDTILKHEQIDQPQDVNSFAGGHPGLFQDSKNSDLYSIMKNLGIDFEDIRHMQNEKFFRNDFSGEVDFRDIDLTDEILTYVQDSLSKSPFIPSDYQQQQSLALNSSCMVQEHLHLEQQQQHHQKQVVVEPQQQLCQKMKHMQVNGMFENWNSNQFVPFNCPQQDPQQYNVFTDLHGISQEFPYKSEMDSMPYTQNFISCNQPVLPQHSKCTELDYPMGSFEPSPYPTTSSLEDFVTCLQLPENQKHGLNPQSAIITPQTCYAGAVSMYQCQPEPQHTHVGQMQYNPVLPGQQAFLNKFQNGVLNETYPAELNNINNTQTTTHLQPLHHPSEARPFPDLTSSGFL
Put plainly: In vitro assay 1: antagonism in human cell line (transactivation assay, U87 cells prestimulated with kynurenic acid, DRE firefly luciferase reporter). The conditions noted are these: 150 uM kynurenic acid, 20 hours, read-out: Assay 1: AHR-luc Hum Antagonism IC50. In kind it is cell-based. On the set-up: host or cells: U87 glioblastoma cells, stably transfected with DRE firefly luciferase and renilla reporter constructs. The gist of the method: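 U87 glioblastoma cells with endogenous AHR, stably carrying a DRE-driven firefly luciferase reporter and a constitutive renilla reporter. Cells prestimulated with the AHR agonist kynurenic acid before compound addition; data normalized to positive and negative controls.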

The target of experiment [2] is T1, AHR. As to the kind of experiment: In vitro assay 2: agonism in human cell line (transactivation assay, U87 cells, DRE firefly luciferase reporter). The format is cell-based. Details: host or cells: U87 glioblastoma cells, stably transfected with DRE firefly luciferase and renilla reporter constructs. To be noted: no kynurenic acid, 20 hours, read-out: Assay 2: AHR-luc Hum Agonism IC50. A digest of the protocol:
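U87 glioblastoma cells with endogenous AHR, stably carrying DRE-driven firefly luciferase and constitutive renilla reporters. 300 uM kynurenic acid served as positive activation control; data normalized to positive and negative controls.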

For the compound `O=C(N[C@H]1CCC[C@H]1O)c1cc(-c2ccc(C(F)(F)F)nc2)nn(-c2cncc(F)c2)c1=O` [Example 338, 2-(5-Fluoropyridin-3-yl)-N-[(1S,2R)-2-hydroxycyclopentyl]-3-oxo-6-[6-(trifluoromethyl)pyridin-3-yl]-2,3-dihydropyridazine-4-carboxamide], the half-maximal inhibitory concentration (IC50) on AHR [1] was 24.1 nM; on AHR [2], greater than 20000 nM.
For `C[C@@H](CO)NC(=O)c1cc(-c2ccc(C#N)cc2)nn(-c2cccnc2)c1=O` [Example 179, 6-(4-Cyanophenyl)-N-[(2S)-1-hydroxypropan-2-yl]-3-oxo-2-(pyridin-3-yl)-2,3-dihydropyridazine-4-carboxamide], in that order: 736 nM and greater than 20000 nM.
As to `O=C(N[C@H]1CCCC(F)(F)[C@@H]1O)c1cc(-c2ccc(OC(F)(F)F)cc2)nn(-c2cccnc2)c1=O` (relative stereo) [Example 140, N-[(trans)-3,3-Difluoro-2-hydroxycyclohexyl]-3-oxo-2-(pyridin-3-yl)-6-[4-(trifluoromethoxy)phenyl]-2,3-dihydropyridazine-4-carboxamide], the IC50 is 9.55 nM at AHR [1] and greater than 20000 nM on AHR [2].
In the same order, the values of `O=C(NC(CO)CO)c1cc(-c2ccc(Cl)cc2)nn(-c2cncc(F)c2)c1=O` [Example 84, 6-(4-Chlorophenyl)-N-(1,3-dihydroxypropan-2-yl)-2-(5-fluoropyridin-3-yl)-3-oxo-2,3-dihydropyridazine-4-carboxamide] are 163 nM and greater than 20000 nM.
For `C[C@H](NC(=O)c1cc(-c2ccc(C(F)(F)F)cc2)nn(-c2cnsc2)c1=O)C(C)(C)O` [Example 196, N-[(2S)-3-Hydroxy-3-methylbutan-2-yl]-3-oxo-2-(1,2-thiazol-4-yl)-6-[4-(trifluoromethyl)phenyl]-2,3-dihydropyridazine-4-carboxamide], in that order: 0.418 nM and greater than 20000 nM.
Turning to `COC[C@@H](CO)NC(=O)c1cc(-c2ccc(Cl)cc2)nn(-c2cncc(F)c2)c1=O` [Example 85, 6-(4-Chlorophenyl)-2-(5-fluoropyridin-3-yl)-N-[(2R)-1-hydroxy-3-methoxypropan-2-yl]-3-oxo-2,3-dihydropyridazine-4-carboxamide], the IC50 was 36 nM on AHR [1] and greater than 20000 nM at AHR [2].
For `O=C(NC(CO)C1CC1)c1cc(-c2ccc(C(F)(F)F)cc2)nn(-c2cccnc2)c1=O` (racemic) [Example 109, N-[(1RS)-1-Cyclopropyl-2-hydroxyethyl]-3-oxo-2-(pyridin-3-yl)-6-[4-(trifluoromethyl)phenyl]-2,3-dihydropyridazine-4-carboxamide], in that order: 1.63 nM and greater than 20000 nM.
For `C[C@@H](NC(=O)c1cc(-c2ccc(OC(F)(F)F)cc2)nn(-c2cnsc2)c1=O)C(C)(C)O` [Example 327, N-[(2R)-3-Hydroxy-3-methylbutan-2-yl]-3-oxo-2-(1,2-thiazol-4-yl)-6-[4-(trifluoromethoxy)phenyl]-2,3-dihydropyridazine-4-carboxamide], in that order: 2.58 nM and greater than 20000 nM.
On to `COC[C@H](CO)NC(=O)c1cc(-c2ccc(Cl)cc2)nn(-c2cccnc2)c1=O` [Example 74, (+)-6-(4-Chlorophenyl)-N-[(2S)-1-hydroxy-3-methoxypropan-2-yl]-3-oxo-2-(pyridin-3-yl)-2,3-dihydropyridazine-4-carboxamide], for which the IC50 on AHR [1] is 152 nM; on AHR [2], greater than 20000 nM.
Consider `O=C(NCC1(O)CCC1)c1cc(-c2ccc(C(F)(F)F)cc2)nn(-c2cccnc2)c1=O` [Example 189, N-[(1-Hydroxycyclobutyl)methyl]-3-oxo-2-(pyridin-3-yl)-6-[4-(trifluoromethyl)phenyl]-2,3-dihydropyridazine-4-carboxamide], for which the results for the IC50 on AHR [1] and on AHR [2] were 3.03 nM and greater than 20000 nM, respectively.
In the same order, the values of `O=C(N[C@H](CO)C(F)(F)F)c1cc(-c2ccc(C(F)(F)F)cc2)nn(-c2cn[nH]c2)c1=O` [Example 212, 3-Oxo-2-(1H-pyrazol-4-yl)-N-[(2R)-1,1,1-trifluoro-3-hydroxypropan-2-yl]-6-[4-(trifluoromethyl)phenyl]-2,3-dihydropyridazine-4-carboxamide] are 1.69 nM and greater than 20000 nM.
For `COC[C@@H](CO)NC(=O)c1cc(-c2ccc(C(F)(F)F)cc2)nn(-c2cccnc2)c1=O` [Example 257, N-[(2R)-1-Hydroxy-3-methoxypropan-2-yl]-3-oxo-2-(pyridin-3-yl)-6-[4-(trifluoromethyl)phenyl]-2,3-dihydropyridazine-4-carboxamide], in that order: 26.3 nM and greater than 20000 nM.
For `O=C(NC[C@H](O)C(F)(F)F)c1cc(-c2ccc(Cl)cc2)nn(-c2cncc(F)c2)c1=O` [Example 128, 6-(4-Chlorophenyl)-2-(5-fluoropyridin-3-yl)-3-oxo-N-[(2S)-3,3,3-trifluoro-2-hydroxypropyl]-2,3-dihydropyridazine-4-carboxamide], in that order: 5.05 nM and greater than 20000 nM.
In the case of `Cn1cc(-n2nc(-c3ccc(C(F)(F)F)cc3)cc(C(=O)NCC(C)(C)O)c2=O)cn1` [Example 67, N-(2-Hydroxy-2-methylpropyl)-2-(1-methyl-1H-pyrazol-4-yl)-3-oxo-6-[4-(trifluoromethyl)phenyl]-2,3-dihydropyridazine-4-carboxamide], the IC50 on AHR [1] is 4.3 nM; at AHR [2] it was greater than 20000 nM.
In the same order, the values of `O=C(N[C@@H]1CC[C@@H]1O)c1cc(-c2ccc(Cl)cc2)nn(-c2cccnc2)c1=O` (single isomer, unassigned) [Example 281, (−)-6-(4-Chlorophenyl)-N-cis-2-hydroxycyclobutyl-3-oxo-2-(pyridin-3-yl)-2,3-dihydropyridazine-4-carboxamide] are 261 nM and greater than 20000 nM.
In the same order, the values of `CC(C)[C@@H](CO)NC(=O)c1cc(-c2ccc(C(F)(F)F)nc2)nn(-c2cncc(F)c2)c1=O` [Example 337, 2-(5-Fluoropyridin-3-yl)-N-[(2S)-1-hydroxy-3-methylbutan-2-yl]-3-oxo-6-[6-(trifluoromethyl)pyridin-3-yl]-2,3-dihydropyridazine-4-carboxamide] are 20.8 nM and greater than 20000 nM.
For `C[C@@H](CO)NC(=O)c1cc(-c2ccc(C(F)F)nc2)nn(-c2cnn(C)c2)c1=O` [Example 66, 6-[6-(Difluoromethyl)pyridin-3-yl]-N-[(2S)-1-hydroxypropan-2-yl]-2-(1-methyl-1H-pyrazol-4-yl)-3-oxo-2,3-dihydropyridazine-4-carboxamide], in that order: 259 nM and greater than 20000 nM.
With `O=C(N[C@@H]1CSC[C@@H]1O)c1cc(-c2ccc(C(F)(F)F)cc2)nn(-c2cccnc2)c1=O` (single isomer, unassigned) [Example 291, (−)-N-cis-4-hydroxy-tetrahydrothiophen-3-yl-3-oxo-2-(pyridin-3-yl)-6-[4-(trifluoromethyl)phenyl]-2,3-dihydropyridazine-4-carboxamide], the IC50 on AHR [1] was 4.38 nM; on AHR [2], greater than 20000 nM.
With `C[C@@H](CO)NC(=O)c1cc(-c2ccc(Cl)cc2)nn(-c2cnoc2)c1=O` [Example 253, 6-(4-Chlorophenyl)-N-[(2S)-1-hydroxypropan-2-yl]-2-(1,2-oxazol-4-yl)-3-oxo-2,3-dihydropyridazine-4-carboxamide], the IC50 at AHR [1] was 19.4 nM; on AHR [2], greater than 20000 nM.
For the compound `O=C(N[C@H]1COC[C@@H]1O)c1cc(-c2ccc(OC(F)(F)F)cc2)nn(-c2cccnc2)c1=O` (racemic) [Example 160, N-[(trans)-4-Hydroxytetrahydrofuran-3-yl]-3-oxo-2-(pyridin-3-yl)-6-[4-(trifluoromethoxy)phenyl]-2,3-dihydropyridazine-4-carboxamide], the IC50 on AHR [1] was 79.2 nM; at AHR [2], greater than 20000 nM.
For `O=C(N[C@H]1COC[C@H]1O)c1cc(-c2ccc(Cl)cc2)nn(-c2ccnnc2)c1=O` (relative stereo) [Example 181, 3-(4-Chlorophenyl)-N-[(cis)-4-hydroxytetrahydrofuran-3-yl]-6-oxo-6H-1,4′-bipyridazine-5-carboxamide], in that order: 911 nM and greater than 20000 nM.
